# Results: a melting point compilation (Tetko et al.; mined from patent text by program, amines drawn as free bases though some values may be those of a salt)
row,SMILES,melting point [°C]
1,CC(C)(C)OC(=O)c1ccc(N2CC(CN=[N+]=[N-])OC2=O)cc1F (stereo unspecified),91 to 92
2,CC(C)(CO)NC(N)=S,127 to 129
3,CCCCOC(=O)C1CC(n2cnc3c(Cl)ncnc32)C(O)C1O (stereo unspecified),104 to 106
4,CCOC(=O)C1=C[C@@H]2OC(C)=N[C@@H]2[C@@H](NC(=O)OC(C)(C)C)C1,45 to 49
5,COc1cc(Nc2c(C#N)cnc3cc(Oc4ccncc4)c(OC)cc23)c(Cl)cc1Cl,267 to 269
6,c1cc2c3c(cccc3c1)C(NCCCCn1ccnc1)=N2,225 to 230
7,COc1cc(C=O)ccc1OCCCCl,53 to 55
8,CON=C(C(=O)O)c1csc(NC(=O)OCC(Cl)(Cl)Cl)n1,162 to 163
9,CCOC(=O)Cn1c(C(=O)NCc2nnc(C)n2-c2sc(C)cc2C(=O)c2ccccc2Cl)cc2ccccc21,153 to 154
10,CCCn1c(=O)c2c(NC)n[nH]c2n(CCc2ccccc2)c1=O,256 to 258
11,Cc1c(CN2CCc3[nH]c4ccccc4c3C2=O)ncn1C(c1ccccc1)(c1ccccc1)c1ccccc1,235 to 236
12,CCCCC(=N)NC(=O)Nc1cccc(C(F)(F)F)c1,167 to 169
13,CC1(C)CON(Cc2c(F)cccc2Cl)C1=O,49 to 51
14,"OC1Cc2cccc(-c3ccccc3)c2C1 (single isomer, unassigned; (+))",100 to 101
15,CCCCc1c2c(nc3cc(F)c(F)cc13)-c1cc3c(c(=O)n1C2)COC(=O)CC3(O)CC (stereo unspecified),> 275
16,OCc1nc(Cl)cc(N2CCCC2)n1,90 to 93
17,O=C(O)CCCCCCCCc1ccc(Cl)cc1,73 to 75
18,[N-]=[N+]=CC(=O)c1ccc(Br)c(S(N)(=O)=O)c1,152
19,CNC(=O)Oc1ccc2c(ccn2Cc2ccncc2)c1,170
20,COC(=O)c1sc2cccc(OC)c2c1N(C)C,69 to 73
21,CCCCCCC(O)CC(=O)O (stereo unspecified),49.3 to 50
22,Cc1nn2c(-c3cccc(NC(=O)CC(C)C)c3)ccnc2c1C(=O)c1cccs1,137 to 139
23,CC(=O)COc1cc(=O)oc2ccccc12,163 to 165
24,Cc1cc(C(N)=O)ncc1C(c1c(F)ccc(F)c1F)S(=O)(=O)CCCC(F)(F)F (stereo unspecified),201 to 203
25,CCC(=O)NCC(CCO)c1cccc2ccc(OC)cc12 (stereo unspecified),123 to 125

# Second part, the compound after the results:
row,melting point [°C],SMILES
1,228 to 230,COC(=O)CC(=O)Nc1ccc(C2=NNC(=O)CC2C)cc1 (stereo unspecified)
2,180 to 181,Nc1c(-c2ccc(C(F)(F)F)cc2F)nnn1Cc1ccc(S(N)(=O)=O)cc1
3,102 to 104,CCCCCCCCCCOc1ccc(-c2ccc(C(C)=O)cc2)cc1
4,240,O=C(O)C(=O)Nc1c(-c2ccccc2)c(=O)[nH]c2cc(Cl)ccc12
5,> 300,c1ccc(N(c2ccccc2)c2ccc(-c3ccc(-c4ccnc(Nc5ccc6ccccc6c5)n4)cc3)cc2)cc1
6,262 to 268,Oc1ccc2oc(-c3ccc(O)c(F)c3)nc2c1
7,83 to 84,Cc1ccc(CCC(C)NCC(O)c2cc3ccccc3o2)cc1 (stereo unspecified)
8,185 to 186,CSc1ccc(-c2coc3ccc(-c4nnc(C)o4)cc23)cc1C
9,137 to 138,CN(C)C=Cc1ccc(-c2csc(-c3ccc(F)cc3)n2)cc1[N+](=O)[O-]
10,137 to 140,CN(C)C=C1C(=O)OC(=O)c2ccccc21
11,121 to 125,CN=C(NC#N)C1=CC(C)(COC)Oc2ccc([N+](=O)[O-])cc21 (stereo unspecified)
12,135,COc1ccc(C(=O)c2cccc3c2ccn3S(=O)(=O)c2ccc(C)cc2)cc1
13,143 to 144,COc1ccccc1-c1c(CC(=O)O)oc(=O)c2ccccc12
14,173 to 175,O=C(O)Cc1nn(Cc2ccc(Br)cc2F)c(=O)c2c(F)cccc12
15,229 to 237,O=C(O)C=Cc1cc(N2CCNCC2)ccc1[N+](=O)[O-]
16,185 to 188,COC(=O)c1ccc2[nH]c(/C=C/c3ccc(OC)c(OC)c3)nc2c1
